Assay results published in patent publication US20240148821A1, “PHARMACEUTICAL USE OF CYCLIC PEPTIDE COMPOUND” (CHUGAI SEIYAKU KABUSHIKI KAISHA, priority 2021, published 2024).
Numbered stars: 1 amine (or outer) side, 2 acyl side, 3 side chain; on linkers, the order of the positions; unused ones are H or OH. Bridge positions count the residues as written; N and C are the ends. Square brackets hold non-standard residues; d marks the D form. Peptide text beside a SMILES is read from it. * marks the point of attachment. hPhe(3-Cl-4-CF3) = N[C@@H](CCc1ccc(C(F)(F)F)c(Cl)c1)C(=O)O; hPhe(3-F,4-CF3) = N[C@@H](CCc1ccc(C(F)(F)F)c(F)c1)C(=O)O; NMePhe(4-CF3) = CN[C@@H](Cc1ccc(C(F)(F)F)cc1)C(=O)O; NMePhe(4-Me) = CN[C@@H](Cc1ccc(C)cc1)C(=O)O; NMeNle(6-CHF2) = CN[C@@H](CCCCC(F)F)C(=O)O; NMedβ3hAla = C[C@H](CC(=O)[*:2])N(C)[*:1]; NMeAla(cPent) = CN[C@@H](CC1CCCC1)C(=O)O; NMeGly(cPent) = CN[C@H](C(=O)O)C1CCCC1; Phe(3-I) = N[C@@H](Cc1cccc(I)c1)C(=O)O; NMeCha = CN[C@@H](CC1CCCCC1)C(=O)O; NMeChg = CN[C@H](C(=O)O)C1CCCCC1; NMeD = CN[C@@H](CC(=O)O)C(=O)O; CH2CONHtBu = CC(C)(C)NC(=O)C*; NMeL = CN[C@@H](CC(C)C)C(=O)O; Chg = N[C@H](C(=O)O)C1CCCCC1; dNMeAbu = CC[C@@H](NC)C(=O)O; d(β3hA) = C[C@@H](N)CC(=O)O; NMeS = CN[C@@H](CO)C(=O)O; Pip = O=C(O)[C@@H]1CCCCN1; dNMeS = CN[C@H](CO)C(=O)O; NMeA = CN[C@@H](C)C(=O)O; NMeAib = CNC(C)(C)C(=O)O; Nle = CCCC[C@H](N)C(=O)O; Piperidide = C1CCN(*)CC1; Pra = C#CC[C@H](N)C(=O)O; dNMeA = CN[C@H](C)C(=O)O; Ac5c = NC1(C(=O)O)CCCC1; Aze = O=C(O)[C@@H]1CCN1; CH2CMe2OH = CC(C)(O)C*; Aib = CC(C)(N)C(=O)O; Isopentyl = CC(C)CC*; NEtG = CCNCC(=O)O; Sar = CNCC(=O)O

Legend:
[1] = system: Human pancreatic cancer cell line AsPC-1 (G12D mutation Kras); assay: AsPC-1 cell growth inhibition (AsPC-1 CGI); format: cell-based; conditions: read-out: AsPC-1 cell growth inhibition, 50% growth inhibitory concentration (IC50 value); 96 hours, CellTiter-Glo, values classified in ranges
Protocol: Test compounds were serially dilated with dimethyl sulfoxide, and 200 nL was then dispensed to a U-bottom 96-well plate using Labcyte Echo. […] The cell suspension was dispensed to a. plate containing a test compound at 100 μL per well and incubated at 37° C. in a 5% carbon dioxide gas incubator. 96 hours later, 80 μL of CellTiter-Glo (Promega) was added to each well and fluorescence was measured.

[2] = target: protein-protein interaction between Kras and SOS1 (biotin-tagged human Kras loaded with GDP, His-tagged human SOS1) (Homo sapiens (Human), UniProt P01116, G12D); assay: Protein-protein interaction inhibition between Kras and SOS1 (KrasG12D-SOS PPI) using AlphaScreen; format: biochemical; conditions: AlphaScreen; biotin-tagged human Kras loaded with GDP, His-tagged human SOS1; read-out: KRAS G12D-SOS PPI IC50;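 further: kras produced in E. coli, Ni-coupled donor beads and streptavidin acceptor beads, excitation 680 nm with emission detected at 520–620 nm via singlet oxygen transfer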

| SMILES | IC50 [1] [nM] | IC50 [2] [nM] |
| --- | --- | --- |
| CC[C@H](C)[C@@H]1NC(=O)[C@H](CC(C)C)N(C)C(=O)C[C@@H](C)N(C)C(=O)[C@H](CC(C)C)NC(=O)C(C)(C)N(C)C(=O)[C@H](CC(C)C)NC(=O)[C@H](CCc2ccc(C(F)(F)F)c(Cl)c2)NC(=O)CN(C)C(=O)[C@H](Cc2ccc(C)cc2)N(C)C(=O)CN(C)C(=O)CN(C)C1=O [Compound 1388] (cyclo(I[Sar][Sar][NMePhe(4-Me)][Sar][hPhe(3-Cl-4-CF3)]L[NMeAib]L[NMedβ3hAla][NMeL])) | > 500 | 10 |
| CC[C@H](C)[C@@H]1NC(=O)[C@H](C)N(C)C(=O)C[C@@H](C)N(C)C(=O)[C@H](CC(C)C)NC(=O)C(C)(C)N(C)C(=O)[C@H](CC(C)C)NC(=O)[C@H](CCc2ccc(C(F)(F)F)c(Cl)c2)NC(=O)CN(C)C(=O)[C@H](Cc2ccc(C(F)(F)F)cc2)N(C)C(=O)CN(C)C(=O)CN(C)C1=O [Compound 1397] (cyclo(I[Sar][Sar][NMePhe(4-CF3)][Sar][hPhe(3-Cl-4-CF3)]L[NMeAib]L[NMedβ3hAla][NMeA])) | > 500 | 6.4 |
| CC[C@H](C)[C@@H]1NC(=O)[C@H](C)N(C)C(=O)C[C@@H](C)N(C)C(=O)[C@H](CC(C)C)NC(=O)C(C)(C)N(C)C(=O)[C@H](CC(C)C)NC(=O)[C@H](CCc2ccc(C(F)(F)F)c(Cl)c2)NC(=O)CN(C)C(=O)[C@H](Cc2ccc(C)cc2)N(C)C(=O)CN(C)C(=O)CN(C)C1=O [Compound 1398] (cyclo(I[Sar][Sar][NMePhe(4-Me)][Sar][hPhe(3-Cl-4-CF3)]L[NMeAib]L[NMedβ3hAla][NMeA])) | > 500 | 6.6 |
| CC[C@H](C)[C@@H]1NC(=O)[C@H](CC(C)C)N(C)C(=O)C[C@@H](C(=O)N2CCCCC2)N(C)C(=O)[C@H](CC(C)C)NC(=O)C(C)(C)N(C)C(=O)[C@@H]2CCCCCC[C@@H](C(=O)N(C)CC(=O)N[C@@H](Cc3cccc(I)c3)C(=O)N2)N(C)C(=O)CN(C)C(=O)CN(C)C1=O [Compound 1411, (1S,7S,10S,14S,17S,26S,32S)-32-[(3-iodophenyl)methyl]-7,14-diisobutyl-3,4,4,9,13,19,22,25,28-nonamethyl-17-[(1S)-1-methylpropyl]-10-(piperidine-1-carbonyl)-3,6,9,13,16,19,22,25,28,31,34-undecazabicyclo[24.8.6]tetracontane-2,5,8,12,15,18,21,24,27,30,33-undecone] | > 500 | 82 |
| CCCC[C@@H]1NC(=O)[C@H](Cc2cccc(I)c2)NC(=O)CN(C)C(=O)[C@H](CC2CCCC2)N(C)C(=O)[C@@H]2CCN2C(=O)[C@H](C)N(C)C(=O)[C@H]([C@@H](C)CC)NC(=O)[C@@H]2CCCCN2C(=O)C[C@@H](C(=O)N2CCCCC2)N(C)C(=O)[C@H](CC(C)C)NC(=O)C(C)(C)N(C)C1=O [Compound 1424] ([Pip]I[NMeA][Aze][NMeAla(cPent)][Sar][Phe(3-I)][Nle][NMeAib]L[NMeD]-Piperidide; lactam N-11) | > 500 | 200 |
| CC[C@@H]1C(=O)NC2(CCCC2)C(=O)N(C)[C@@H](C2CCCCC2)C(=O)N(C)[C@H](C(=O)N2CCCCC2)CC(=O)N(C)[C@@H](CC(C)C)C(=O)N[C@@H]([C@@H](C)CC)C(=O)N(C)CC(=O)N(C)CC(=O)N(C)[C@@H](CC2CCCCC2)C(=O)N(C)CC(=O)N[C@@H](CCc2ccc(C(F)(F)F)c(Cl)c2)C(=O)N1C [Compound 1435] ([NMeL]I[Sar][Sar][NMeCha][Sar][hPhe(3-Cl-4-CF3)][dNMeAbu][Ac5c][NMeChg][NMeD]-Piperidide; lactam N-11) | > 500 | 7.4 |
| CC[C@H](C)[C@@H]1NC(=O)[C@H](CC(C)C)N(C)C(=O)C[C@@H](C(=O)N2CCCCC2)N(C)C(=O)[C@H](C2CCCCC2)N(C)C(=O)C2(CCCC2)NC(=O)[C@@H](COCCC(C)C)N(C)C(=O)[C@H](CCc2ccc(C(F)(F)F)c(Cl)c2)NC(=O)CN(C)C(=O)[C@H](CC2CCCCC2)N(C)C(=O)CN(C)C(=O)CN(C)C1=O [Compound 1436] ([NMeL]I[Sar][Sar][NMeCha][Sar][hPhe(3-Cl-4-CF3)][dNMeS](Isopentyl)[Ac5c][NMeChg][NMeD]-Piperidide; lactam N-11) | > 500 | 39 |
| CC[C@H](C)[C@@H]1NC(=O)[C@H](CC(C)C)N(C)C(=O)C[C@@H](C(=O)N2CCCCC2)N(C)C(=O)[C@H](C2CCCCC2)N(C)C(=O)C2(CCCC2)NC(=O)[C@@H](CO)N(C)C(=O)[C@H](CCc2ccc(C(F)(F)F)c(Cl)c2)NC(=O)CN(C)C(=O)[C@H](CC2CCCCC2)N(C)C(=O)CN(C)C(=O)CN(C)C1=O [Compound 1448] ([NMeL]I[Sar][Sar][NMeCha][Sar][hPhe(3-Cl-4-CF3)][dNMeS][Ac5c][NMeChg][NMeD]-Piperidide; lactam N-11) | > 500 | 1.1 |
| CC[C@H](C)[C@@H]1NC(=O)[C@H](CC(C)C)N(C)C(=O)C[C@@H](C)NC(=O)[C@H](CC(C)C)N(C)C(=O)C(C)(C)NC(=O)[C@H](CC(C)C)N(C)C(=O)[C@H](CCc2ccc(C(F)(F)F)c(Cl)c2)NC(=O)CN(C)C(=O)[C@H](CCCCC(F)F)N(C)C(=O)CN(C)C(=O)CN(C)C1=O [Compound 1451] (cyclo([Aib][NMeL][d(β3hA)][NMeL]I[Sar][Sar][NMeNle(6-CHF2)][Sar][hPhe(3-Cl-4-CF3)][NMeL])) | > 500 | 20 |
| CC(C)C[C@H]1C(=O)N[C@@H](C2CCCCC2)C(=O)N(C)CC(=O)N(C)CC(=O)N(C)[C@@H](CCCCC(F)F)C(=O)N(C)CC(=O)N[C@@H](CCc2ccc(C(F)(F)F)c(F)c2)C(=O)N(C)[C@@H](CC(C)C)C(=O)NC(C)(C)C(=O)N(C)[C@@H](CC(C)C)C(=O)N[C@H](C)CC(=O)N1C [Compound 1460] (cyclo([Aib][NMeL][d(β3hA)][NMeL][Chg][Sar][Sar][NMeNle(6-CHF2)][Sar][hPhe(3-F,4-CF3)][NMeL])) | > 500 | 130 |
| CC[C@H](C)[C@@H]1NC(=O)[C@H](C)N(C)C(=O)C[C@@H](C)NC(=O)[C@H](C2CCCC2)N(C)C(=O)C2(CCCC2)NC(=O)[C@@H]2CCCN2C(=O)[C@H](CCc2ccc(C(F)(F)F)c(Cl)c2)NC(=O)[C@@H](C)N(C)C(=O)[C@H](Cc2ccc(C)cc2)N(C)C(=O)[C@@H]2CCN2C(=O)CN(C)C1=O [Compound 1461] (cyclo([Ac5c][NMeGly(cPent)][d(β3hA)][NMeA]I[Sar][Aze][NMePhe(4-Me)][dNMeA][hPhe(3-Cl-4-CF3)]P)) | > 500 | 37 |
| C#CC[C@@H]1NC(=O)[C@H](CC(C)C)N(C)C(=O)C[C@@H](C)NC(=O)[C@H](CC(C)C)N(C)C(=O)C(C)(C)NC(=O)[C@H](CC(C)C)N(C)C(=O)[C@H](CCc2ccc(C(F)(F)F)c(F)c2)NC(=O)CN(C)C(=O)[C@H](CC2CCCCC2)N(C)C(=O)CN(C)C(=O)CN(C)C1=O [Compound 1474] (cyclo([Aib][NMeL][d(β3hA)][NMeL][Pra][Sar][Sar][NMeCha][Sar][hPhe(3-F,4-CF3)][NMeL])) | > 500 | 240 |
| CC[C@H](C)[C@@H]1NC(=O)[C@H](COCC(C)(C)O)N(C)C(=O)C[C@@H](C)NC(=O)[C@H](CC(C)C)N(C)C(=O)C(C)(C)NC(=O)[C@H](CC(C)C)N(C)C(=O)[C@H](CCc2ccc(C(F)(F)F)c(Cl)c2)NC(=O)CN(C)C(=O)[C@H](COCCC(C)C)N(C)C(=O)CN(C)C(=O)CN(CC)C1=O [Compound 1476] (cyclo([Aib][NMeL][d(β3hA)][NMeS](CH2CMe2OH)I[NEtG][Sar][NMeS](Isopentyl)[Sar][hPhe(3-Cl-4-CF3)][NMeL])) | > 500 | 46 |
| CC[C@H](C)[C@@H]1NC(=O)[C@H](C)N(C)C(=O)C[C@@H](C)NC(=O)[C@H](C2CCCC2)N(C)C(=O)C2(CCCC2)NC(=O)[C@@H]2CCCN2C(=O)[C@H](CCc2ccc(C(F)(F)F)c(Cl)c2)NC(=O)CN(C)C(=O)[C@H](CC2CCCCC2)N(C)C(=O)[C@@H]2CCN2C(=O)[C@H](C)N(C)C1=O [Compound 1491] (cyclo([Ac5c][NMeGly(cPent)][d(β3hA)][NMeA]I[NMeA][Aze][NMeCha][Sar][hPhe(3-Cl-4-CF3)]P)) | > 500 | 3.7 |
| CC[C@H](C)[C@@H]1NC(=O)[C@H](COCC(=O)NC(C)(C)C)N(C)C(=O)C[C@@H](C)NC(=O)[C@H](CC(C)C)N(C)C(=O)C(C)(C)NC(=O)[C@H](CC(C)C)N(C)C(=O)[C@H](CCc2ccc(C(F)(F)F)c(Cl)c2)NC(=O)CN(C)C(=O)[C@H](COCCC(C)C)N(C)C(=O)CN(C)C(=O)CN(CC)C1=O [Compound 1495] (cyclo([Aib][NMeL][d(β3hA)][NMeS](CH2CONHtBu)I[NEtG][Sar][NMeS](Isopentyl)[Sar][hPhe(3-Cl-4-CF3)][NMeL])) | > 500 | 120 |
| CC(C)C[C@H]1C(=O)N[C@@H](C(C)C)C(=O)N(C)CC(=O)N(C)CC(=O)N(C)[C@@H](CC2CCCCC2)C(=O)N(C)CC(=O)N[C@@H](CCc2ccc(C(F)(F)F)c(F)c2)C(=O)N(C)[C@@H](CC(C)C)C(=O)NC(C)(C)C(=O)N(C)[C@@H](CC(C)C)C(=O)N[C@H](C)CC(=O)N1C [Compound 1511] (cyclo([Aib][NMeL][d(β3hA)][NMeL]V[Sar][Sar][NMeCha][Sar][hPhe(3-F,4-CF3)][NMeL])) | > 500 | 190 |
| CC[C@H](C)[C@@H]1NC(=O)[C@H](CC(C)C)N(C)C(=O)C[C@@H](C)NC(=O)[C@H](C2CCCC2)N(C)C(=O)C2(CCCC2)NC(=O)[C@@H]2CCCN2C(=O)[C@H](CCc2ccc(C(F)(F)F)c(Cl)c2)NC(=O)[C@@H](C)N(C)C(=O)[C@H](Cc2ccc(C)cc2)N(C)C(=O)[C@@H]2CCN2C(=O)CN(C)C1=O [Compound 1517] (cyclo([Ac5c][NMeGly(cPent)][d(β3hA)][NMeL]I[Sar][Aze][NMePhe(4-Me)][dNMeA][hPhe(3-Cl-4-CF3)]P)) | > 500 | 49 |
